Results published in patent US20180273503A1, “NOVEL ANGIOTENSIN CONVERTING ENZYME INHIBITOR” (RIKEN, priority 2015, published 2018).

Target: T1, angiotensin converting enzyme (ACE) (Homo sapiens, UniProt P12821)
T1 construct: purchased Dojindo Laboratories A502
Test: ACE inhibitory activity assay (ACE Kit-WST, A502, Dojindo Laboratories)
Type: biochemical
Details: for IC50: 3HB-GGG substrate, absorbance 450 nm, N.D. = ACE inhibitory activity was not detected in the test, read-out: IC50 concerning ACE activity
Description: ACE inhibitory activity can be quantitatively evaluated with the use of, for example, a commercially available kit for ACE inhibitory activity assay. […] For example, ACE inhibitory activity of a target sample (e.g., a compound) can be evaluated with the use of a commercially available kit for ACE inhibitory activity assay (ACE Kit-WST, A502, Dojindo Laboratories) in the manner described below. In principle, such kit enzymatically detects 3-hydroxybutyric acid (3HB) cleaved from 3-hydroxybutyryl-glycyl-glycyl-glycine (3HB-GGG) by ACE activity. In accordance with the instructions of the kit, a sample solution containing a test compound at a given concentration is prepared in a reaction vessel, and a control solution is prepared with the addition of the same volume of water instead of the sample solution in another reaction vessel. An enzyme reaction solution is added to each reaction vessel, and the reaction is then allowed to proceed, respectively. As a blank sample, a solution prepared with the addition of the same volume of water instead of the enzyme solution is subjected to the same treatment. The absorbance (450 nm) of the chromogenic indicator used in the enzymatic method generated together with 3HB cleaved from 3HB-GGG by ACE activity is measured. On the basis of the values measured for the sample, the control sample, and the blank sample, ACE inhibitory activity of each sample is determined using the formula shown below. Alternatively, ACE inhibitory activity of the target sample can be evaluated in the manner described below. A substrate peptide that is a mimic of a C-terminal region of angiotensin I (e.g., hippuryl-histidyl-leucine (HHL)) and a sample are mixed with each other in an appropriate buffer solution. ACE is added to the resulting mixture and an enzymatic reaction is performed under appropriate conditions (e.g., 37° C. and pH 8.3) for a given period of time. After the enzymatic reaction is terminated, a product generated from the substrate peptide (e.g., hippuric acid in the case of HHL) is quantitatively measured via analytical means, such as absorbance measurement, immunoanalysis such as ELISA or RIA, or chromatography analysis such as HPLC or LC-MS. A sample-free control and an ACE-free blank are subjected to the same experiment. On the basis of the values measured for the sample, the control sample, and the blank sample, ACE inhibitory activity of each sample is determined using the formula shown below. […]
In principle, such kit enzymatically detects 3-hydroxybutyric acid (3HB) cleaved from 3-hydroxybutyryl-glycyl-glycyl-glycine (3HB-GGG) by ACE activity. […] The absorbance (450 nm) of the chromogenic indicator used in the enzymatic method generated together with 3HB cleaved from 3HB-GGG by ACE activity was measured.

T1 sequence (P12821 30-1306, species assumed): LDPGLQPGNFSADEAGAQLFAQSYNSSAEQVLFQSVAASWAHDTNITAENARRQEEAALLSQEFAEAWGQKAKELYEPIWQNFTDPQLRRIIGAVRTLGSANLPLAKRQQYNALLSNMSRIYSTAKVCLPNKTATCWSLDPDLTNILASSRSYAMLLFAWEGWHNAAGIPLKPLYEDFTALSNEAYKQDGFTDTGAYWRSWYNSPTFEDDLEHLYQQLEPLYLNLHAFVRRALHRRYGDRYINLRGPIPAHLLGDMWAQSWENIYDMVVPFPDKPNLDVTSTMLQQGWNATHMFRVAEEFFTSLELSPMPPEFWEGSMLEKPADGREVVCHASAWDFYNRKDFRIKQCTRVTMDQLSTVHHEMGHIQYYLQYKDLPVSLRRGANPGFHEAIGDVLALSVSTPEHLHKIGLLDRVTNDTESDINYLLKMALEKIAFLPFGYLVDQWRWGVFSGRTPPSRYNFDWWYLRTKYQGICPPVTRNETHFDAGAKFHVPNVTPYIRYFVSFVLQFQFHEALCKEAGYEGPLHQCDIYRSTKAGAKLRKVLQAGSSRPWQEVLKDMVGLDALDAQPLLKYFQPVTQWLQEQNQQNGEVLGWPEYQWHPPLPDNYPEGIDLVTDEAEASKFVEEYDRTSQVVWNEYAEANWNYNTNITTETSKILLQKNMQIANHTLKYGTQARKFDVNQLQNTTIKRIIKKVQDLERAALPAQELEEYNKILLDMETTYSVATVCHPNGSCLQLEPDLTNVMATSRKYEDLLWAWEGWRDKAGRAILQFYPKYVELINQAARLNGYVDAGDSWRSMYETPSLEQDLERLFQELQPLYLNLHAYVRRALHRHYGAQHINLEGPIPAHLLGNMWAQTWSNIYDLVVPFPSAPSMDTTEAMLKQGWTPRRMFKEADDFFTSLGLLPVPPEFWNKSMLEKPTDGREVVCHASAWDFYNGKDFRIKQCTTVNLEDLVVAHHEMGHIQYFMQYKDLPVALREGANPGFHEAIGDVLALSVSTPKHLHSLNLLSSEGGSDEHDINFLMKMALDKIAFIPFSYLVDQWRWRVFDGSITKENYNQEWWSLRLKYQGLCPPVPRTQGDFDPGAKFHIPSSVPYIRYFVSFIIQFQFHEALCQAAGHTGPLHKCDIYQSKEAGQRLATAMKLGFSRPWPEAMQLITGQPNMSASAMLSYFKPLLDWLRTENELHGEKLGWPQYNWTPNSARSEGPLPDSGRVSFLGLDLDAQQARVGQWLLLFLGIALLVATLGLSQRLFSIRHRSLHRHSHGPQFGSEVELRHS

| IC50 [µM] | concentration at which ACE inhibitory activity is exerted (from the dose-response data) | SMILES |
| --- | --- | --- |
| 113 | exceeding 1 μM | N=C(N)NCCC[C@H](NC(=O)C1CSSC1)C(=O)O [Asparaptine, asparaptine] |
| 14.5 ± 5.3 |  | O=C(O)CCC(=O)N1CCC[C@H]1C(=O)O [N-Succinyl-L-proline, N-succinyl-L-proline] |
| 18.7 ± 0.54 |  | N[C@@H](CCN[C@@H](CCN1CC[C@H]1C(=O)O)C(=O)O)C(=O)O [Nicotianamine, nicotianamine] |
